Converted amounts (≈) assume the structure as drawn.
Columns and labels:
[1] = Acute toxicity in NMRI mice after intravenous injection; conditions: mouse, in vivo, survival on day 14, Litchfield-Wilcoxon
Protocol: Details of the test method are evident from the procecdure for determining the formation of colonies given herein after. Appropriate tests on NMRI mice were carried out to determine the acute toxicity of the anthracycline derivatives according to the invention. Details of the test method are evident from the procedure for determining the acute toxicity given hereinafter.
Determination of the acute toxicity entailed intravenous injection of various doses of the test substance, disolved in 0.5 ml of physiological saline solution, in NMRI mice on day 0. Control groups received only 0.5 ml of physiological saline solution. 5 mice were used for each concentration of the test substance. The number of surviving mice was determined on day 14, and the LD50 was determined therefrom by the Litchfield-Wilcoxon method. The toxicity of the compounds described here is compiled in Table 1, comparing with adriamycin.

[2] = test system: mouse L1210 leukemia cells; test: Formation of L1210 leukemia cell colonies in soft agar; format: cell-based; conditions: for IC50: Mus musculus, L1210, 168 h, read-out: Cytotoxicity (continuous incubation) IC50; for cytostatic activity compared with adriamycin: result in words, test not named
Protocol: The cytostatic activity of the compounds according to the invention has been tested using mouse L1210 leukemia cells. Use was made for this of the formation of L1210 leukemia cell colonies in soft agar. This method is used to detect the effect of the test substances on the growth behavior of the cells over several generations. In this connection, with a cell cycle time of 10 to 12 hours, about 14 consecutive generations are observed in the 7-day duration of the test. In this test, the substances having cytostatic activity according to the invention bring about a reduction, compared with an untreated control sample, in the number of colonies which is to be observed.
500 leukemia cells per plate were incubated with various concentrations of the test substance at 37° C. for 1 hour. The cells were then washed twice with McCoy 5A medium, 0.3% agar was added, and finally the mixture was poured into Petri dishes. Controls were incubated only with fresh medium. In place of the incubation for one hour, in some cases various concentrations and test substances were mixed with the upper agar layer in order in this way to achieve continuous exposure of the cells throughout the incubation time. After the agar had solidified, the plates were incubated in an incubator at 37° C. for 7 days (5% by volume CO2, 95% relative atmospheric humidity). Thereafter the number of colonies with a diameter of more than 60μ which had formed was counted. The results have been stated as the number of colonies in treated agar plates as a percentage of the untreated control. The dose-effect graph obtained in this way was used to determine the IC50 as a measure of the activity of the substance. The results for the compounds described here are compiled in Table 1, comparing with adriamycin.

| SMILES | LD50 at 336 h [1] [mg/kg] | IC50 [2] [mg/L] | cytostatic activity compared with adriamycin [2] |
| --- | --- | --- | --- |
| COc1cccc2c1C(=O)c1c(O)c3c(c(O)c1C2=O)C[C@@](O)(C(=O)CO)C[C@@H]3O[C@H]1C[C@H](N)[C@H](O)[C@H](C)O1 [Adriamycin, reference compound] | 26.5 | 0.02 (≈ 0.0368 µM) |  |
| CC[C@@]1(O)C[C@H](O[C@H]2C[C@H](NC(=O)C(F)(F)F)[C@H](O)[C@H](C)O2)c2c(O)c3c(c(O)c2[C@H]1C(=O)OC)C(=O)c1c(O)ccc(O)c1C3=O [Compound 5, 7-O-(3'-N-trifluoroacetyl-α-L-daunosaminyl)-ε-isorhodomycinone] |  | 0.4 (≈ 0.597 µM) |  |
| CC[C@@]1(O)C[C@H](O[C@H]2C[C@H](NC)[C@H](OC(C)=O)[C@H](C)O2)c2c(O)c3c(c(O)c2[C@H]1C(=O)OC)C(=O)c1c(O)ccc(O)c1C3=O [Compound 8, 7-O-(4'-O-acetyl-3'-N-methyl-α-L-daunosaminyl)-ε-isorhodomycinone] |  | 0.1 (≈ 0.159 µM) |  |
| CC[C@@]1(O)C[C@H](O[C@H]2C[C@H](NC)[C@H](O)[C@H](C)O2)c2c(O)c3c(c(O)c2[C@H]1C(=O)OC)C(=O)c1c(O)ccc(O)c1C3=O [Compound 9, 7-O-(3'-N-methyl--L-daunosaminyl)-ε-isorhodomycinone] |  | 0.028 (≈ 0.0477 µM) |  |
| CC[C@@]1(O)C[C@H](O[C@H]2C[C@H](N(C)C)[C@H](O)[C@H](C)O2)c2c(O)c3c(c(O)c2[C@H]1C(=O)OC)C(=O)c1c(O)ccc(O)c1C3=O [Compound 2, 7-O-(α-L-rhodosaminyl)-ε-isorhodomycinone] | 50 to 100 | 0.035 (≈ 0.0582 µM) | comparable with that of adriamycin |
| CC[C@@]1(O)C[C@H](O[C@H]2C[C@H](N(C)C)[C@H](OC(C)=O)[C@H](C)O2)c2c(O)c3c(c(O)c2[C@H]1C(=O)OC)C(=O)c1c(O)ccc(O)c1C3=O [Compound 1, 7-O-(4'-O-acetyl--L-rhodosaminyl)-ε-isorhodomycinone] | 89 | 0.028 (≈ 0.0435 µM) | comparable with that of adriamycin |

Reference: patent US4965352A, “Anthracycline derivatives having cytostatic activity” (Behringwerke Aktiengesellschaft, priority 1986, dated 1990)
